Source: PubChem BioAssay (NCI)
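These data come from cells grown in 96-well plates and exposed to compound for 48 hours at five concentrations. Abbreviation: GI50, concentration required for 50% inhibition of growth. The concentration for full growth arrest is given as TGI.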

How the values were obtained:
Test in all cases: inhibition of tumour cell growth, NCI panel, 48 h
[1] = tested on: COLO 205 colon
[2] = tested on: HCT-116 colon
[3] = tested on: IGROV1 ovarian
[4] = tested on: MDA-N
[5] = tested on: MOLT-4 leukemia
[6] = tested on: NCI-H23 lung
[7] = tested on: SK-MEL-5 melanoma
[8] = tested on: SN12C renal
[9] = tested on: SNB-75 CNS
[10] = tested on: A498 renal

Compound | TGI [1] [µM] | TGI [2] [µM] | TGI [3] [µM] | TGI [4] [µM] | TGI [5] [µM] | TGI [6] [µM] | TGI [7] [µM] | TGI [8] [µM] | TGI [9] [µM] | TGI [10] [µM] | GI50 [10] [µM] | GI50 [1] [µM] | GI50 [2] [µM] | GI50 [3] [µM] | GI50 [5] [µM] | GI50 [6] [µM] | GI50 [7] [µM] | GI50 [8] [µM] | GI50 [9] [µM]
COc1ccc2c(c1)CCN=C2Cc1cc(OC)c(OC)cc1CCCl | > 100 | > 100 | > 100 | > 100 | > 100 | > 100 | 58.9 | > 100 | > 100 |  |  |  |  |  |  |  |  |  | 
O=C(C=P(c1ccccc1)(c1ccccc1)c1ccccc1)c1cccc(-c2cccc([N+](=O)[O-])c2)c1 | 2.91 | > 100 | 38.4 | 6.95 | 5.37 | 26.4 | 5.93 | > 100 | 7.62 | 7.87 |  |  |  |  |  |  |  |  | 
CN(c1cc2ncc(=O)[nH]c2cc1NC(N)=NCc1ccc(Cl)cc1)C1CCCCC1 | 2.55 | 12.3 | 15 |  | 14.6 | 15.9 | 15.3 | 15.5 | 10.1 | 15.4 | 8.04 | 1.11 | 5.44 | 6.93 | 6.59 | 8.25 | 8.18 | 7.23 | 2.87
CCN1C=C/C(=C\C=C/c2cc[n+](CC)c3ccccc23)c2ccccc21 | 17 | 13.4 | 12.4 | 19.3 | 19.7 | 11.7 | 21.2 | 12.3 | 7.57 | 8.78 |  |  |  |  |  |  |  |  | 
CCOC(=O)C[C@@H]1C2(C=C[C@@]13CO3)OCC(C)(C)CO2 | > 100 | > 100 | > 100 | > 100 | > 100 | > 100 | > 100 | > 100 | > 100 | > 100 |  |  |  |  |  |  |  |  | 
C=CCc1cc(-c2cc(CC=C)c(O)c(CNC)c2)cc(CNC)c1O | 33.5 | 28.1 | 32.7 |  | 31.1 | 29.6 | 29.7 | 31.3 | 24.3 | 34.6 |  |  |  |  |  |  |  |  | 
CCCCCCCCCCCCCCCc1ccc(OCC(O)CO)cc1 (centres undefined) | 59.3 | 31.3 | > 100 |  | > 100 | 35.2 | > 100 | 33.2 | 72 | > 100 |  |  |  |  |  |  |  |  | 
c1ccc(C2CC(c3cccc(Nc4ccncc4)c3)=NN2c2ccccc2)cc1 (centres undefined) | 3.86 | 3.25 | 3.18 |  | 4.83 | 3.35 | 3.22 | 3.06 | 2.88 | 3.03 | 1.42 | 1.9 | 1.66 | 1.68 | 2.02 | 1.73 | 1.77 | 1.65 | 1.32
CC(C)(C)OC(=O)NCC(=O)NC1c2ccsc2/C(=N/O)[C@H]1O (some centres undefined) | > 100 | > 100 | > 100 | > 100 | > 100 | > 100 | > 100 | > 100 |  | > 100 |  |  |  |  |  |  |  |  | 
CO/C=C(/C(=O)OC)c1ccccc1[C@@H]1CC1c1cccc(F)c1 (some centres undefined) | 30.3 | 77.3 | 62.8 | 91.2 | > 100 | > 100 | 24.8 | 98.4 |  | 95.9 |  |  |  |  |  |  |  |  | 
Cc1nc2c(n1C)C(=O)c1nc(CBr)[nH]c(=O)c1C2=O | > 100 | > 100 | > 100 |  | > 100 | > 100 | 39 | > 100 |  | > 100 |  |  |  |  |  |  |  |  | 
